US20250177533A1, “PHOTODYNAMIC THERAPY AND DIAGNOSIS” (RMW CHO Group Limited, priority 2021, published 2025)
Like-named read-outs stand apart in the source and are kept apart here.

Legend:
[1] = system: Human ovarian cancer cell line SKOV3; assay: Phototoxicity in SKOV3 cells (660 nm laser or LED, AlamarBlue viability); format: cell-based; settings: for IC90: SKOV3, 24 h uptake, viability 24 h later
Description: All data are shown as mean±SD (where appropriate).
Media was then replaced with fresh media containing AlamarBlue, and % viable cells remaining assessed as above. […] All measurements were made in quadruplicate.

[2] = system: Human ovarian cancer cell line SKOV3; assay: Inherent cytotoxicity (dark toxicity) in SKOV3 cells (AlamarBlue viability); settings: SKOV3, 24 h incubation, no light activation
Description: (§1) Serial dilutions were prepared in cell culture media (Dulbecco's Modified Eagle Medium/Nutrient Mixture F-12 (DMEM/F-12)) supplemented with 10% v/v Fetal Bovine Serum, 100 U/mL penicillin, 100 μg/mL streptomycin and the same excipient solution at a constant 1:55 dilution.
(§2) Human ovarian cancer cell line SKOV3 (ATCC #HTB-77) was maintained in Dulbecco's Modified Eagle Medium/Nutrient Mixture F-12 (DMEM/F-12), supplemented with 10% v/v Fetal Bovine Serum, 100 U/mL penicillin and 100 μg/mL streptomycin. Monolayer cultures were grown in a humidified incubator at 37° C. with 5% CO2. Once cells had reached ˜80% confluence, spent media was replaced with media containing photosensitizer at the required concentration and cells were incubated for the desired period of time to allow photosensitizer uptake.
(§3) Spectral absorbance and viability measurements were normalized in the range 0-100%, with a minimum of 0 and a maximum value determined from the dataset. Dose response was determined using a sigmoidal four-point non-linear regression with variable slope, and IC10 or IC90 calculated for each compound. All data are shown as mean±SD (where appropriate).
(§4) On reaching ˜60% confluence, media was aspirated and replaced with fresh media containing the relevant phyllochlorin analogue from 0-100 μM in DMSO.
(§5) Untreated cells were used as a control. […] All measurements were made in quadruplicate.
(§6) The phototoxicity and inherent cytotoxicity (i.e. “dark toxicity”) of phyllochlorin analogues were assessed as previously using SKOV3 ovarian cancer cells. For comparative purposes, phyllochlorin analogues were compared against chlorin e4 disodium and Talaporfin sodium, a clinically approved photosensitizer used in the photodynamic treatment of lung cancers.

[3] = system: Human ovarian cancer cell line SKOV3; settings: 24 h
Description: as §1, §2, §3, §4, §5, §6

[4] = Homo sapiens, SK-OV-3, light or radiation study, 660 nm LED panel 50 mW/cm^2 for 5 mins (15 J/cm^2), read-out: Phototoxicity μM (IC90), measured by LED
[5] = Homo sapiens, SK-OV-3, light or radiation study, 660 nm laser 50 mW/cm^2 for 5 mins (15 J/cm^2), read-out: Phototoxicity μM (IC90)

Compound: CCC1=C(C)c2cc3[nH]c(cc4nc(c(C)c5cc(C)c(cc1n2)[nH]5)[C@@H](CCC(=O)OC)[C@@H]4C)c(C)c3COC(=O)NCCC[P+](c1ccccc1)(c1ccccc1)c1ccccc1 [Compound 45, phyllochlorin methyl ester 13-(N-(3-triphenylphosphoniumpropyl)bromide)carbamate]
- IC90 [1, 4]: 0.0012 µM
- Dark toxicity μM (IC10) [2]: 3.977 µM

Compound: CCC1=C(C)c2cc3[nH]c(cc4nc(c(C)c5cc(C)c(cc1n2)[nH]5)[C@@H](CCC(=O)N(C)CCOC)[C@@H]4C)c(C)c3COC(=O)NCCC[P+](c1ccccc1)(c1ccccc1)c1ccccc1 [Compound 50, phyllochlorin N-methyl-N-(2-methoxy)ethyl propylamide 13-(N-(3-triphenylphosphoniumpropyl)bromide)carbamate]
- IC90 [1, 4]: 0.0016 µM
- Dark toxicity μM (IC10) [2]: 0.470 µM

Compound: CCC1=C(C)c2cc3[nH]c(cc4nc(c(C)c5cc(C)c(cc1n2)[nH]5)[C@@H](CCC(=O)OC)[C@@H]4C)c(C)c3COC(=O)NCCCOCCC[P+](c1ccccc1)(c1ccccc1)c1ccccc1 [Compound 40, phyllochlorin methyl ester 13-(N-(3-(3-triphenylphosphoniumpropoxy)propyl)chloride)carbamate]
- IC90 [1, 4]: 0.0008 µM
- Dark toxicity μM (IC10) [2]: 0.6145 µM

Compound: CCC1=C(C)c2cc3[nH]c(cc4nc(c(C)c5cc(C)c(cc1n2)[nH]5)[C@@H](CCCO[C@@H]1O[C@H](CO)[C@@H](O)[C@H](O)[C@H]1O)[C@@H]4C)c(C)c3CO[C@@H]1O[C@H](CO)[C@@H](O)[C@H](O)[C@H]1O [Compound 33, phyllochlorin 13-hydroxymethyl-3-hydroxypropyl-bis-β-D-glucoside ether]
- IC90 [1, 5]: 0.765 µM
- Dark toxicity μM (IC10) [3]: 14.080 µM

Compound: CCOC(=O)CC[C@@H]1c2nc(cc3[nH]c(cc4nc(cc5[nH]c(cc5C)c2C)C(CC)=C4C)c(COC(=O)NCCC[P+](c2ccccc2)(c2ccccc2)c2ccccc2)c3C)[C@H]1C [Compound 53, phyllochlorin ethyl ester 13-(N-(3-triphenylphosphoniumpropyl)bromide)carbamate]
- IC90 [1, 4]: 0.00077 µM
- greater phototoxicity compared to Talaporfin sodium ([1]; SKOV3, IC90): 5 orders of magnitude
- Dark toxicity μM (IC10) [2]: 2.240 µM

Compound: CCC1=C(C)c2cc3[nH]c(cc4nc(c(C)c5cc(C)c(cc1n2)[nH]5)[C@@H](CCC(=O)N(C)CCCOCCC[P+](c1ccccc1)(c1ccccc1)c1ccccc1)[C@@H]4C)c(C)c3CO [Compound 18]
- IC90 [1, 5]: 0.007 µM
- Dark toxicity μM (IC10) [3]: 4.393 µM

Compound: CCC1=C(C)c2cc3[nH]c(cc4nc(c(C)c5cc(C)c(cc1n2)[nH]5)[C@@H](CCC(=O)OC)[C@@H]4C)c(C)c3COC(=O)NCCCCCC[P+](c1ccccc1)(c1ccccc1)c1ccccc1 [Compound 39, phyllochlorin methyl ester 13-(6-(triphenylphosphonium bromide)hexyl)carbamate]
- IC90 [1, 4]: 0.0018 µM
- Dark toxicity μM (IC10) [3]: 6.403 µM

Compound: CCC1=C(C)c2cc3[nH]c(cc4nc(c(C)c5cc(C)c(cc1n2)[nH]5)[C@@H](CCC(=O)OC)[C@@H]4C)c(C)c3C(C)OCCOCC[n+]1ccccc1 (some centres unmarked) [Compound 22, phyllochlorin methyl ester 2-(2-pyridiniumethoxy)ethyl ether chloride]
- IC90 [1, 5]: 0.004 µM
- Dark toxicity μM (IC10) [3]: 2.228 µM

Compound: CCC1=C(C)c2cc3[nH]c(cc4nc(c(C)c5cc(C)c(cc1n2)[nH]5)[C@@H](CCC(=O)OC)[C@@H]4C)c(C)c3C(C)OCCC[n+]1ccc(C)cc1 (some centres unmarked) [Compound 28]
- IC90 [1, 5]: 0.003 µM
- Dark toxicity μM (IC10) [3]: 4.877 µM

Compound: phyllochlorin methyl ester 3-triphenylphosphonium bromide propyl ether [Compound 21]
- IC90 ([1]; 660 nm laser 50 mW/cm^2 for 5 mins (15 J/cm^2), read-out: Phototoxicity μM (IC90)): 0.012 µM
- Dark toxicity μM (IC10) [2]: 3.801 µM

Compound: CCC1=C(C)c2cc3[nH]c(cc4nc(c(C)c5cc(C)c(cc1n2)[nH]5)[C@@H](CCC(=O)OC)[C@@H]4C)c(C)c3COC(=O)NCCOC [Compound 29, phyllochlorin methyl ester 13-(2-methoxyethyl)carbamate]
- IC90 [1, 4]: 0.0867 µM
- Dark toxicity μM (IC10) [3]: 30.000 µM

Compound: CCC1=C(C)c2cc3[nH]c(cc4nc(c(C)c5cc(C)c(cc1n2)[nH]5)[C@@H](CCC(=O)N(CCOCCOCCOC)CCOCCOCCOC)[C@@H]4C)c(C)c3CO [Compound 13, phyllochlorin 13-hydroxymethyl-N,N-bis-PEG3OMe propylamide]
- IC90 [1, 5]: 0.421 µM
- Dark toxicity μM (IC10) [3]: 60.750 µM

Compound: CCC1=C(C)c2cc3[nH]c(cc4nc(c(C)c5cc(C)c(cc1n2)[nH]5)[C@@H](CCCO)[C@@H]4C)c(C)c3CO [Compound 32, phyllochlorin 13-hydroxymethyl-3-hydroxypropyl]
- IC90 [1, 5]: 0.0724 µM
- Dark toxicity μM (IC10) [3]: 30.850 µM

Compound: phyllochlorin 13-(N-(3-(3-triphenylphosphoniumpropoxy)propyl)chloride)carbamate N-methyl-N-3,6,9-trioxadecyl propylamide [Compound 44]
- IC90 ([1]; 660 nm LED panel 50 mW/cm^2 for 5 mins (15 J/cm^2), read-out: Phototoxicity μM (IC90), measured by LED): 0.0057 µM
- Dark toxicity μM (IC10) [2]: 0.5603 µM

Compound: C=Cc1c(C)c2cc3nc(c(CC(=O)N[C@@H](CC(=O)O)C(=O)O)c4[nH]c(cc5nc(cc1[nH]2)C(C)=C5CC)c(C)c4C(=O)O)[C@@H](CCC(=O)O)[C@@H]3C [Talaporfin sodium, reference compound]
- Dark toxicity μM (IC10) [2]: 11.10 µM

Compound: CCC1=C(C)c2cc3[nH]c(cc4nc(c(C)c5cc(C)c(cc1n2)[nH]5)[C@@H](CCC(=O)N(C)CCOCCOCCOCCOCCOCCOC)[C@@H]4C)c(C)c3CO[C@@H]1O[C@H](CO)[C@@H](O)[C@H](O)[C@H]1O [Compound 25, phyllochlorin 13-hydroxymethyl-β-D-glucoside ether-β-D-glucosel-N-methyl-N-3,6,9,12,15,18-hexaoxanonadecyl propylamide]
- IC90 [1, 5]: 0.146 µM
- Dark toxicity μM (IC10) [3]: 0.279 µM

Compound: CCC1=C(C)c2cc3[nH]c(cc4nc(c(C)c5cc(C)c(cc1n2)[nH]5)[C@@H](CCC(=O)N(C)CCCO)[C@@H]4C)c(C)c3CO[C@@H]1O[C@H](CO)[C@@H](O)[C@H](O)[C@H]1O [Compound 6, phyllochlorin N-3-hydroxypropyl-N-methyl-propylamide 13-hydroxymethyl-β-D-glucoside ether]
- IC90 [1, 5]: 0.084 µM
- Dark toxicity μM (IC10) [3]: 0.528 µM

Compound: CCC1=C(C)c2cc3[nH]c(cc4nc(c(C)c5cc(C)c(cc1n2)[nH]5)[C@@H](CCC(=O)OC)[C@@H]4C)c(C)c3COC(=O)NCC[P+](c1ccccc1)(c1ccccc1)c1ccccc1 [Compound 46, phyllochlorin methyl ester 13-(N-(2-triphenylphosphoniumethyl)bromide)carbamate]
- IC90 [1, 4]: 0.0014 µM
- Dark toxicity μM (IC10) [3]: 1.277 µM

Compound: CCC1=C(C)c2cc3[nH]c(cc4nc(c(C)c5cc(C)c(cc1n2)[nH]5)[C@@H](CCC(=O)NCCOC)[C@@H]4C)c(C)c3COC(=O)NCCC[P+](c1ccccc1)(c1ccccc1)c1ccccc1 [Compound 52, phyllochlorin N-(2-methoxy)ethyl propylamide 13-(N-(3-triphenylphosphoniumpropyl)bromide)carbamate]
- IC90 [1, 4]: 0.0052 µM
- Dark toxicity μM (IC10) [2]: 1.060 µM
